Reference: patent US20140024716A1, “Composition Comprising S-Allyl-L-Cysteine as Active Ingredient for Preventing or Treating Gastrointestinal Disorders” (PHARMAKING CO., LTD., priority 2009, published 2014)
Where “and” joins values, the source holds several entries; their conditions need not be identical. Equal values may be shown once. Entries after “also recorded” stand apart in the source; their conditions may differ.

How the values were obtained:
[1] = test system: TNF-α; assay: Serum TNF-α in Helicobacter pylori-infected mice; format: in vivo, C57BL/6 mice; conditions: SAC1 and SAC2 groups (200 and 400 mg/kg SAC), p<0.09
Experimental: 8-week old male C57BL/6 mice were classified into 4 groups, i.e., a positive control group (to which Helicobacter pylori was administered; PC), a negative control group (to which saline was administered; NC), experimental group 1 (to which Helicobacter pylori and 200 mg/kg of SAC were administered; SAC1), and experimental group 2 (to which Helicobacter pylori and 400 mg/kg of SAC were administered; SAC2). Each group had 10 mice. White powdered SAC was diluted in tap water to concentrations of 20 mg/mL and 40 mg/mL and 10 μl/g (body weight) of the diluted SAC was orally administered to the mice of the SAC1 and SAC2 groups three times a week for 10 weeks. The mice were given free access to tap water for the entire test period. The Helicobacter pylori was collected with saline to a concentration of 1×10^9 CFU/mL, and 0.2 mL of the diluted Helicobacter pylori was orally administered to each mouse for 8 weeks from 2 weeks after SAC administration. […]
In order to observe the effect of SAC on an inflammation factor of TNF-α in serum, a commercially available mouse TNF-α antibody analysis kit Microplate (R&D systems Inc., USA) was used and concentrations of TNF-α in serum of mice were measured according to the manuals of the kit.

[2] = test system: gastric lesions of rats induced by hydrochloric acid-ethanol; assay: Hydrochloric acid-ethanol-induced gastric lesion animal model; format: in vivo, Sprague-Dawley rats; conditions: for lengths of gastric lesions: 1 h before HCl-ethanol; for lengths of gastric lesions / gastric lesion inhibiting rate (%): p<0.01
Excerpt: (§1) SAC was purchased from TCI Chemical Co. (Tokyo, Japan). Sterile water for injection (Model No. 73H5F21, Dae Han Pharmaceutical Co. Ltd.) was used as a vehicle, and Stillen® was used as a positive control material. 0.5% CMC-Na and sterile water for injection were used as excipients for Stillen®. Hydrochloric acid was purchased from Samjung Chemical, Co., ethanol was purchased from Baker, Co., aspirin was purchased from Sigma, Co., and indomethacin was purchased from Sigma, Co.
(§2) 7 to 8-week old male specific pathogen free (SPF) HsdKoat:Sprague-Dawley®™ SD®™rats (weight of 7-week old males was in the range of 208.44 to 227.39 g, and weight of 8-week old maleswas in the range of 223.85 to 245.03 g, purchased from Koatech, Co. Ltd., Gyunggido, Korea) were quarantined and acclimated in the Animal Lab for 7 days. The rats were bred at a temperature of 23 3° C., at a relative humidity of 55 15%, with light for 12 hours (light turned on at 08:00 and light turned off at 20:00) while air was ventilated 10 to 20 times/hr in the Animal Experiment Lab of Gyeonggi Bio-Center. Other environments for breeding which might influence the test for the entire test period were not considered for use. The rats were given free access to a solid laboratory diet (Harlan Co. Ltd., USA. Teklad certified global 18% protein rodent diet, 2918C) that was supplied by Folas International. […] The rats were given free access to tap water that was sterilized using a UV sterilizer and a micro filter with water bottles.
(§3) The rats were classified into a vehicle control group G1 to which only a vehicle was administered, a experimental group G2 to which 100 mg/kg of SAC was administered, a experimental group G3 to which 200 mg/kg of SAC was administered, a experimental group G4 to which 400 mg/kg of SAC was administered, and a positive control group G5 to which 100 mg/kg of Stillen® (55.6 mg/kg as an active ingredient) as a positive control material were administered. Each group included 8 rats in a hydrochloric acid-ethanol-induced animal model (Experiment Example 7) and included 6 rats in an aspirin-induced animal model (Experimental Example 8) and in an indomethacin-induced animal model (Experimental Example 9).
(§4) The test substance was directly administered to the stomach using an injection tube equipped with a sonde for oral administration in a single dose once per day.
The test substances were administered. After one hour, 1.5 ml of 150 mM HCl in 60% ethanol was orally administered to each rat. The rats to which ethanol and SAC were administered were fasted without water in stainless steel breeding cages for 1 hour. After one hour from the hydrochloric acid-ethanol administration, the rats were sacrificed under anesthesia using ether and their stomachs including parts of the duodenum and esophagus were isolated. The insides of the stomachs were immediately washed with 13 ml of a 2% neutral buffered formalin, and the duodenum and esophagus parts were fixed with forceps. Then, 13 ml of the 2% neutral buffered formalin was added thereto and maintained for 5 minutes for fixation. The greater curvature of each stomach was incised, fixed to a dissection table, and unfolded to measure the lengths of gastric lesions using vernier calipers. Photographs of the unfolded stomachs were taken (FIG. 12) and the stomachs were fixed with a 10% neutral buffered formalin. […]

[3] = test system: gastric lesions of rats induced by indomethacin; assay: Indomethacin-induced gastric lesion animal model; format: in vivo, Sprague-Dawley rats
Excerpt: as §1, §2, §3, §4
The rats were fasted for more than 24 hours in a normal environment, SAC was administered, and 25 mg/kg of indomethacin in distilled water was orally administered after 30 minutes. After six hours from the indomethacin administration, the rats were sacrificed under ether anesthesia and their stomachs including parts of the duodenum and esophagus were isolated. The stomachs were fixed for 10 minutes by injecting 12 ml of 2% formalin, the greater curvature of each stomach was incised and unfolded, photographs of the lesions were taken, and then the areas of the lesions were measured using an image analyzer.
The gastric lesion inhibiting rate (%) was calculated in the same manner as in Experimental Example 8.

Which “serum TNF-α versus PC group” value [1] does the source give for `C=CCSC[C@H](N)C(=O)O` [SAC, S-allyl-L-cysteine] here?
The value was “reduced; also recorded: less than that of the PC group”.

And the “lengths of gastric lesions” value ([2]; 200 mg/kg SAC oral, vehicle 209.60±28.39 mm)?
Its value is 106.65±16.70 mm.

What about the “gastric lesion inhibiting rate (%)” value ([2]; 200 mg/kg SAC) of the same molecule?
The value was 41.12±7.97%.

And the “lengths of gastric lesions” value ([2]; 400 mg/kg SAC oral)?
Its value is 72.25±19.33 mm.

What about the “gastric lesion inhibiting rate (%)” value ([2]; 400 mg/kg SAC) of the same molecule?
The value was 65.53±9.22%.

And the “gastric lesion inhibiting rate (%) up to” value ([2]; highest rate over SAC doses)?
The value was “about 66%”.

And the “gross finding of stomach” value ([3]; 200 mg/kg and 400 mg/kg SAC)?
Its value is “light gastric lesions and no bleedings”.

What about the “Ulcer area of individual animal (Animal number 1-6)” value (shortened to “Ulcer area of individual animal”) ([3]; G2: 100 mg/kg SAC) of the same molecule?
Its value is 1.3 and 1.6 and 1.5 and 9.4 and 2.3.

What about the “Ulcer Area (mm^2), group mean” value ([3]; G2: 100 mg/kg SAC oral, 30 min before 25 mg/kg indomethacin) of the same molecule?
Its value is 3.2±3.47 mm^2 and 3.2 mm^2.

What about the “Ulcer area of individual animal” value ([3]; G3: 200 mg/kg SAC) of the same molecule?
The value was 0.0 and 0.3 and 0.9 and 0.6 and 0.7 and 0.4.

And the “Ulcer Area (mm^2), group mean” value ([3]; G3: 200 mg/kg SAC, n = 6)?
The value was 0.5±0.30 mm^2 and 0.5 mm^2.

And the “Ulcer area of individual animal” value ([3]; G4: 400 mg/kg SAC)?
Its value is 0.8 and 0.4 and 0.1 (2×) and 0.2 and 1.0.

What about the “Ulcer Area (mm^2), group mean” value ([3]; G4: 400 mg/kg SAC, n = 6) of the same molecule?
Its value is 0.4±0.36 mm^2 and 0.4 mm^2.

And the “gastric lesion inhibiting rate (%) up to” value ([3]; highest rate over SAC doses)?
Its value is “about 94%”.
